Paper PMC6341489 (2016)

Tested on: 2-AP-labeled miR-21-hp RNA (RNA, miRNA, 2-aminopurine at 15 (replaces A15)) GGGUUGACUGUUGAAUCUCAUGGCAACCC
Test: 2-aminopurine fluorescence titration
Settings: 137 mM NaCl, 3 mM KCl; apparent; PBS pH 7.4, 10% DMSO, RT, 2 μM RNA

- Kd: 3.2 ± 0.7 µM
Compound: OC(CNc1ccccc1)Cn1c2ccc(Br)cc2c2cc(Br)ccc21 (stereo not shown)
